Columns and labels:
5-HT2C receptor = molecular target: T1, 5-HT2C receptor (Homo sapiens, UniProt P28335); assay: Serotonin receptor binding experiment, 5-HT2C; design: species or system human or rat; conditions: [3H]Mesulergine 1 nM, 30 min at 37° C.; read-out: Receptor affinity (IC50, nM) 5-HT2C
T1 sequence (P28335 33-458): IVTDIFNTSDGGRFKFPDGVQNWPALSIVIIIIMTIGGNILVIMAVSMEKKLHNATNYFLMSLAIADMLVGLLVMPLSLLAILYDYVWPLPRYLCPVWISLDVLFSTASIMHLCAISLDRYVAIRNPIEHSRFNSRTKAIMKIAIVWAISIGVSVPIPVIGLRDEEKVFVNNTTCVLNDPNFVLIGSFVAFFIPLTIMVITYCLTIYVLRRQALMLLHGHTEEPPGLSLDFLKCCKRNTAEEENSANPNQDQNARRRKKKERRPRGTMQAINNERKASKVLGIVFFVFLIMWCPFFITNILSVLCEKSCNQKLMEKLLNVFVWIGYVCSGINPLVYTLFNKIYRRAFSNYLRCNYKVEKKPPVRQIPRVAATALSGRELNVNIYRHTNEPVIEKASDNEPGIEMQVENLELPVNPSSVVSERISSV
Method: (§1) The measurement of affinity for serotonin 5-HT receptor family was performed according to the experimental conditions as specified in Table 2 below using the method same as in Experimental Example 1 above.

[1] = molecular target: T2, Human recombinant dopamine D2 receptor (Homo sapiens, UniProt P14416); assay: Measurement of affinity for dopamine D2 receptor ([3H]spiperone binding); conditions: for IC50: [3H]spiperone 0.5 nM, CHO cell line, 60 min at 27° C.
T2 construct: purchased PerkinElmer; host or cells: CHO cell line
T2 sequence (P14416 whole entry): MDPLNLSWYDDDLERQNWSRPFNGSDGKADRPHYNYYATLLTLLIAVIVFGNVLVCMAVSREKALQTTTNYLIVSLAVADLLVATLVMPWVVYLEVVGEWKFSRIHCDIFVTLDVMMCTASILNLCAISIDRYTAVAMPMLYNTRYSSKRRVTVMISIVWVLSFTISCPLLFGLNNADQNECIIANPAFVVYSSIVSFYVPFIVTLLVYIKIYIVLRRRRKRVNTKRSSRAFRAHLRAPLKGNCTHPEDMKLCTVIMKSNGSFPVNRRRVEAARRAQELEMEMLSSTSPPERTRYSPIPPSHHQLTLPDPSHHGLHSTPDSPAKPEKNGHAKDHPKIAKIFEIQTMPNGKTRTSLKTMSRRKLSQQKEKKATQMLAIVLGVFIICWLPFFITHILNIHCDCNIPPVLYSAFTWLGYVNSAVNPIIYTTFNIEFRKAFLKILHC
Method: Human recombinant dopamine D2 and D3 receptors, which were expressed in CHO cell lines, respectively, were purchased from PerkinElmer and Euroscreen, respectively.
50 mM Tris-HCl (pH 7.4) containing […] and 1 mM EDTA was used as a buffer solution for the measurement of affinity for dopamine D2 receptor. 50 mM Tris-HCl (pH 7.4) containing 5 mM MgCl2, 5 mM EDTA, 5 mM KCl, 1.5 mM CaCl2 and 120 mM NaCl was used as a buffer solution for the measurement of affinity for dopamine D3 receptor. For measurement of non-specific binding, 10 μM haloperidol (haloperidol) was used.

5-HT2A receptor = 5-HT2A receptor (Homo sapiens, UniProt P28223); assay: Serotonin receptor binding experiment, 5-HT2A; design: species or system human or rat; conditions: [3H]ketanserin 1 nM, 15 min at 37° C.; read-out: Receptor affinity (IC50, nM) 5-HT2A
Sequence of 5-HT2A receptor (P28223 whole entry): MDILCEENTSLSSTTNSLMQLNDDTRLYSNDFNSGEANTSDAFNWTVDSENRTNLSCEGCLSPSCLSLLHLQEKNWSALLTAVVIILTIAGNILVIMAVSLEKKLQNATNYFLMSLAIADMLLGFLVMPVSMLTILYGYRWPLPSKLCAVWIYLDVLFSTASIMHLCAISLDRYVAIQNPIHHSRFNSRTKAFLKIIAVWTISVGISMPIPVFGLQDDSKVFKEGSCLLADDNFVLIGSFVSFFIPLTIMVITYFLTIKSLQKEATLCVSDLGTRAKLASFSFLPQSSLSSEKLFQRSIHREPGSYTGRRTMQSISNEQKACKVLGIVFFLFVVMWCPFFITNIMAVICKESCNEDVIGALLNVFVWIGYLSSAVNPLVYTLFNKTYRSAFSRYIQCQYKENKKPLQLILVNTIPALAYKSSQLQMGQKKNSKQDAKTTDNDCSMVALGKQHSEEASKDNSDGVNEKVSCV
Method: as §1

5-HT6 receptor = 5-HT6 receptor (Homo sapiens, UniProt P50406); assay: Serotonin receptor binding experiment, 5-HT6; design: species or system human or rat; conditions: [3H]LSD 1.8 nM, 60 min at 37° C.; read-out: Receptor affinity (IC50, nM) 5-HT6
Sequence of 5-HT6 receptor (P50406 whole entry): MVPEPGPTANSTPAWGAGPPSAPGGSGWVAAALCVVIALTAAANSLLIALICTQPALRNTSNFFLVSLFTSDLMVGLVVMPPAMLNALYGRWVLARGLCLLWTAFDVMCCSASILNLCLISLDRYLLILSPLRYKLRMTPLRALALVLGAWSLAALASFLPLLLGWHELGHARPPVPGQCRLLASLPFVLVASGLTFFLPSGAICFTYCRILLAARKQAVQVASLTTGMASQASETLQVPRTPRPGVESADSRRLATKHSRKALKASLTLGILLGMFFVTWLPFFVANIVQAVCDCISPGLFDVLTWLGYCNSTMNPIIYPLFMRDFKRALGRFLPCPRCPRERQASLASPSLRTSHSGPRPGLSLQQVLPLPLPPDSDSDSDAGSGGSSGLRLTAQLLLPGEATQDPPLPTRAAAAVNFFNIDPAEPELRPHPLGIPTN
Method: as §1

Question: What does the source list for `CCCc1cc(CCCN2CCN(c3ccccc3)CC2)n(-c2ccccc2)n1` [Compound 155, 1-phenyl-4-(3-(1-phenyl-3-propyl-1H-pyrazol-5-yl)propyl)piperazine]?
Answer: IC50 (5-HT2C receptor): 671 nM; affinity for D2 receptors (in words) [1]: extremely poor affinity; IC50 [1]: 5260 nM; IC50 (5-HT2A receptor): 35 nM; IC50 (5-HT6 receptor): > 10000 nM

Question: Which results are given for `CCCc1cc(CCCN2CCN(c3ccccc3F)CC2)n(-c2ccccc2)n1` [Compound 156, 1-(2-fluorophenyl)-4-(3-(1-phenyl-3-propyl-1H-pyrazol-5-yl)propyl)piperazine]?
Answer: IC50 (5-HT2C receptor): 1400 nM; affinity for D2 receptors (in words) [1]: extremely poor affinity; IC50 [1]: 696 nM; IC50 (5-HT2A receptor): 152 nM; IC50 (5-HT6 receptor): > 10000 nM

Question: For `CCCc1cc(CCCN2CCN(c3ccc(C)c(C)c3)CC2)n(-c2ccccc2)n1` [Compound 159, 1-(3,4-dimethylphenyl)-4-(3-(1-phenyl-3-propyl-1H-pyrazol-5-yl)propyl)piperazine], which IC50 (5-HT2C receptor) is on record?
Answer: Its IC50 is 154 nM.

Question: And the “affinity for D2 receptors (in words)” value [1]?
Answer: Its value is “extremely poor affinity”.

Question: What about the IC50 [1] of the same compound?
Answer: The IC50 was 2050 nM.

Question: What about the IC50 (5-HT2A receptor) of the same compound?
Answer: Its IC50 is 8 nM.

Question: And the IC50 (5-HT6 receptor)?
Answer: Its IC50 is 2500 nM.

Question: What does the source list for `CCCc1cc(CCCN2CCN(c3cccc(C)c3C)CC2)n(-c2ccccc2)n1` [Compound 160, 1-(2,3-dimethylphenyl)-4-(3-(1-phenyl-3-propyl-1H-pyrazol-5-yl)propyl)piperazine]?
Answer: IC50 (5-HT2C receptor): 141 nM; affinity for D2 receptors (in words) [1]: extremely poor affinity; IC50 [1]: 3790 nM; IC50 (5-HT2A receptor): 65 nM; IC50 (5-HT6 receptor): 2010 nM

Question: How did the IC50 (5-HT2C receptor) turn out when `CC(C)c1cc(CCCN2CCN(c3ccccc3F)CC2)n(-c2ccccc2)n1` [Compound 177, 1-(2-fluorophenyl)-4-(3-(1-phenyl-3-isopropyl-1H-pyrazol-5-yl)propyl)piperazine] was run?
Answer: The IC50 was 505 nM.

Question: And the “affinity for D2 receptors (in words)” value [1]?
Answer: Its value is “extremely poor affinity”.

Question: What about the IC50 [1] of the same compound?
Answer: Its IC50 is 227 nM.

Question: And the IC50 (5-HT2A receptor)?
Answer: The IC50 was 27 nM.

Question: And the IC50 (5-HT6 receptor)?
Answer: The IC50 was 9210 nM.

Source: US8372844B2, “Piperazinyl-propyl-pyrazole derivatives as dopamine D4 receptor antagonists, and pharmaceutical compositions containing the same” (Korea Research Institute of Chemical Technology, priority 2007, dated 2013)
